Measured values taken from patent US7994140B2, “Classes of compounds that interact with GPCRs” (Alchemia Limited, priority 2002, dated 2011).

Experiments:
SST5 = biological target: T1, SST5 (Homo sapiens, UniProt P35346); experiment: GPCR radioligand binding (RLB) assay, somatostatin SST5, [125I]SST-14; conditions: 10 micromolar compound; recombinant human receptor membranes (HEK 293)
T1 construct: purchased Perkin Elmer BioSignal; host or cells: HEK 293
In short: (§1)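 Membranes from HEK 293 cells expressing the recombinant human receptor were equilibrated with [125I]SST-14 (SST5) or [125I]NDP-αMSH (MC4), then compound added for an optimized incubation. Bound ligand separated by filtration on PEI-coated glass fiber and counted by liquid scintillation.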

MC4 = biological target: T2, MC4 (Homo sapiens, UniProt P32245); experiment: GPCR radioligand binding (RLB) assay, melanocortin MC4, [125I]NDP-αMSH; conditions: 10 micromolar compound; recombinant human receptor membranes (HEK 293)
T2 construct: purchased Perkin Elmer BioSignal; host or cells: HEK 293
T2 sequence (P32245 whole entry): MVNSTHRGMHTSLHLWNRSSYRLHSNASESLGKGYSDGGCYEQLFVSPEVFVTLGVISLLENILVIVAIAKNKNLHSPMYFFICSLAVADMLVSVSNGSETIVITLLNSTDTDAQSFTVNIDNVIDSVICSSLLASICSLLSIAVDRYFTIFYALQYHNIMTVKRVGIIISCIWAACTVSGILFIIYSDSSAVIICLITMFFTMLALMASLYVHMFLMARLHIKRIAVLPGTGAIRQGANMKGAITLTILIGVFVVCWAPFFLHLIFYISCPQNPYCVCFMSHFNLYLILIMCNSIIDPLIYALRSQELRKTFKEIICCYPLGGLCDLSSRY
In short: as §1

T1 sequence (P35346 whole entry): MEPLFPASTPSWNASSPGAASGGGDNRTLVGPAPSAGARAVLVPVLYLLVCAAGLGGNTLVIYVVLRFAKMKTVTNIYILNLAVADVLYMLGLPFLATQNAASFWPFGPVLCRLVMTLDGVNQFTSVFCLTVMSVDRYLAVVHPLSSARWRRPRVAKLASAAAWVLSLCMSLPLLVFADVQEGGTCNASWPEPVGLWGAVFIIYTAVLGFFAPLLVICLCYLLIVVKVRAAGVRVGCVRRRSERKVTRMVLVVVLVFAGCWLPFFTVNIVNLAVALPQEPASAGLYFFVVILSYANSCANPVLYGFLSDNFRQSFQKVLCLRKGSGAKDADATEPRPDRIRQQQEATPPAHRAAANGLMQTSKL

Row | Compound | SST5 inhibition at 10 micromolar (SST5) | MC4 inhibition at 10 micromolar (MC4)
1 | CSC1OC(COCc2ccc3ccccc3c2)C(O)C(OCc2ccccc2)C1NC(=O)CN (centres unmarked) [Compound 137] | + (Indicates inhibition greater than . . . 50%) | + (Indicates inhibition greater than . . . 50%)
2 | CSC1OC(COCc2ccc3ccccc3c2)C(O)C(OCc2ccccc2)C1NC(=O)CNC(=N)N (centres unmarked) [Compound 138] | + (Indicates inhibition greater than . . . 50%) | + (Indicates inhibition greater than . . . 50%)
3 | CSC1OC(COCc2ccc3ccccc3c2)C(O)C(OCc2ccccc2)C1NC(=O)CCN (centres unmarked) [Compound 139] | + (Indicates inhibition greater than . . . 50%) | + (Indicates inhibition greater than . . . 50%)
4 | CSC1OC(COCc2ccc3ccccc3c2)C(O)C(OCc2ccccc2)C1NC(=O)CCNC(=N)N (centres unmarked) [Compound 140] | + (Indicates inhibition greater than . . . 50%) | + (Indicates inhibition greater than . . . 50%)
5 | CSC1OC(COCc2ccc3ccccc3c2)C(O)C(OCc2ccccc2)C1NC(=O)CCCN (centres unmarked) [Compound 141] | + (Indicates inhibition greater than . . . 50%) | + (Indicates inhibition greater than . . . 50%)
6 | CSC1OC(COCc2ccc3ccccc3c2)C(O)C(OCc2ccccc2)C1NC(=O)CCCNC(=N)N (centres unmarked) [Compound 142] | + (Indicates inhibition greater than . . . 50%) | + (Indicates inhibition greater than . . . 50%)
7 | CSC1OC(COCc2ccccc2)C(O)C(OCc2ccc(Cl)cc2)C1NC(=O)CNC(=N)N (centres unmarked) [Compound 144] | + (Indicates inhibition greater than . . . 50%) | + (Indicates inhibition greater than . . . 50%)
8 | CSC1OC(COCc2ccccc2)C(O)C(OCc2ccc(Cl)cc2)C1NC(=O)CCN (centres unmarked) [Compound 145] | + (Indicates inhibition greater than . . . 50%) | + (Indicates inhibition greater than . . . 50%)
9 | CSC1OC(COCc2ccccc2)C(O)C(OCc2ccc(Cl)cc2)C1NC(=O)CCNC(=N)N (centres unmarked) [Compound 146] | + (Indicates inhibition greater than . . . 50%) | + (Indicates inhibition greater than . . . 50%)
10 | CSC1OC(COCc2ccccc2)C(O)C(OCc2ccc(Cl)cc2)C1NC(=O)CCCNC(=N)N (centres unmarked) [Compound 148] | + (Indicates inhibition greater than . . . 50%) | + (Indicates inhibition greater than . . . 50%)
11 | CSC1OC(COCc2ccc(Cl)cc2)C(O)C(OCc2ccc(Cl)cc2)C1NC(=O)CNC(=N)N (centres unmarked) [Compound 150] | + (Indicates inhibition greater than . . . 50%) | + (Indicates inhibition greater than . . . 50%)
12 | CSC1OC(COCc2ccc(Cl)cc2)C(O)C(OCc2ccc(Cl)cc2)C1NC(=O)CCN (centres unmarked) [Compound 151] | + (Indicates inhibition greater than . . . 50%) | + (Indicates inhibition greater than . . . 50%)
13 | CSC1OC(COCc2ccc(Cl)cc2)C(O)C(OCc2ccc(Cl)cc2)C1NC(=O)CCNC(=N)N (centres unmarked) [Compound 152] | + (Indicates inhibition greater than . . . 50%) | + (Indicates inhibition greater than . . . 50%)
14 | CSC1OC(COCc2ccc(Cl)cc2)C(O)C(OCc2ccc(Cl)cc2)C1NC(=O)CCCNC(=N)N (centres unmarked) [Compound 154] | + (Indicates inhibition greater than . . . 50%) | + (Indicates inhibition greater than . . . 50%)
15 | CSC1OC(COCc2ccc(-c3ccccc3)cc2)C(O)C(OCc2ccc(Cl)cc2)C1NC(=O)CN (centres unmarked) [Compound 155] | + (Indicates inhibition greater than . . . 50%) | + (Indicates inhibition greater than . . . 50%)
16 | CSC1OC(COCc2ccc(-c3ccccc3)cc2)C(O)C(OCc2ccc(Cl)cc2)C1NC(=O)CNC(=N)N (centres unmarked) [Compound 156] | + (Indicates inhibition greater than . . . 50%) | + (Indicates inhibition greater than . . . 50%)
17 | CSC1OC(COCc2ccc(-c3ccccc3)cc2)C(O)C(OCc2ccc(Cl)cc2)C1NC(=O)CCN (centres unmarked) [Compound 157] | + (Indicates inhibition greater than . . . 50%) | + (Indicates inhibition greater than . . . 50%)

Row | Compound | SST5 inhibition at 10 micromolar (SST5) | MC4 inhibition at 10 micromolar (MC4)
18 | CSC1OC(COCc2ccc(-c3ccccc3)cc2)C(O)C(OCc2ccc(Cl)cc2)C1NC(=O)CCNC(=N)N (centres unmarked) [Compound 158] | + (Indicates inhibition greater than . . . 50%) | + (Indicates inhibition greater than . . . 50%)
19 | CSC1OC(COCc2ccc(-c3ccccc3)cc2)C(O)C(OCc2ccc(Cl)cc2)C1NC(=O)CCCN (centres unmarked) [Compound 159] | + (Indicates inhibition greater than . . . 50%) | + (Indicates inhibition greater than . . . 50%)
20 | CSC1OC(COCc2ccc(-c3ccccc3)cc2)C(O)C(OCc2ccc(Cl)cc2)C1NC(=O)CCCNC(=N)N (centres unmarked) [Compound 160] | + (Indicates inhibition greater than . . . 50%) | + (Indicates inhibition greater than . . . 50%)
21 | CSC1OC(COCc2ccc3ccccc3c2)C(O)C(OCc2ccc(Cl)cc2)C1NC(=O)CN (centres unmarked) [Compound 161] | + (Indicates inhibition greater than . . . 50%) | + (Indicates inhibition greater than . . . 50%)
22 | CSC1OC(COCc2ccc3ccccc3c2)C(O)C(OCc2ccc(Cl)cc2)C1NC(=O)CNC(=N)N (centres unmarked) [Compound 162] | + (Indicates inhibition greater than . . . 50%) | + (Indicates inhibition greater than . . . 50%)
23 | CSC1OC(COCc2ccc3ccccc3c2)C(O)C(OCc2ccc(Cl)cc2)C1NC(=O)CCN (centres unmarked) [Compound 163] | + (Indicates inhibition greater than . . . 50%) | + (Indicates inhibition greater than . . . 50%)
24 | CSC1OC(COCc2ccc3ccccc3c2)C(O)C(OCc2ccc(Cl)cc2)C1NC(=O)CCNC(=N)N (centres unmarked) [Compound 164] | + (Indicates inhibition greater than . . . 50%) | + (Indicates inhibition greater than . . . 50%)
25 | CSC1OC(COCc2ccc3ccccc3c2)C(O)C(OCc2ccc(Cl)cc2)C1NC(=O)CCCN (centres unmarked) [Compound 165] | + (Indicates inhibition greater than . . . 50%) | + (Indicates inhibition greater than . . . 50%)
26 | CSC1OC(COCc2ccc3ccccc3c2)C(O)C(OCc2ccc(Cl)cc2)C1NC(=O)CCCNC(=N)N (centres unmarked) [Compound 166] | + (Indicates inhibition greater than . . . 50%) | + (Indicates inhibition greater than . . . 50%)
27 | CSC1OC(COCc2ccccc2)C(O)C(OCc2ccc(-c3ccccc3)cc2)C1NC(=O)CN (centres unmarked) [Compound 167] | + (Indicates inhibition greater than . . . 50%) | + (Indicates inhibition greater than . . . 50%)
28 | CSC1OC(COCc2ccccc2)C(O)C(OCc2ccc(-c3ccccc3)cc2)C1NC(=O)CNC(=N)N (centres unmarked) [Compound 168] | + (Indicates inhibition greater than . . . 50%) | + (Indicates inhibition greater than . . . 50%)
29 | CSC1OC(COCc2ccccc2)C(O)C(OCc2ccc(-c3ccccc3)cc2)C1NC(=O)CCN (centres unmarked) [Compound 169] | + (Indicates inhibition greater than . . . 50%) | + (Indicates inhibition greater than . . . 50%)
30 | CSC1OC(COCc2ccccc2)C(O)C(OCc2ccc(-c3ccccc3)cc2)C1NC(=O)CCNC(=N)N (centres unmarked) [Compound 170] | + (Indicates inhibition greater than . . . 50%) | + (Indicates inhibition greater than . . . 50%)
31 | CSC1OC(COCc2ccccc2)C(O)C(OCc2ccc(-c3ccccc3)cc2)C1NC(=O)CCCN (centres unmarked) [Compound 171] | + (Indicates inhibition greater than . . . 50%) | + (Indicates inhibition greater than . . . 50%)
32 | CSC1OC(COCc2ccccc2)C(O)C(OCc2ccc(-c3ccccc3)cc2)C1NC(=O)CCCNC(=N)N (centres unmarked) [Compound 172] | + (Indicates inhibition greater than . . . 50%) | + (Indicates inhibition greater than . . . 50%)
33 | CSC1OC(COCc2ccc(Cl)cc2)C(O)C(OCc2ccc(-c3ccccc3)cc2)C1NC(=O)CN (centres unmarked) [Compound 173] | + (Indicates inhibition greater than . . . 50%) | + (Indicates inhibition greater than . . . 50%)
34 | CSC1OC(COCc2ccc(Cl)cc2)C(O)C(OCc2ccc(-c3ccccc3)cc2)C1NC(=O)CNC(=N)N (centres unmarked) [Compound 174] | + (Indicates inhibition greater than . . . 50%) | + (Indicates inhibition greater than . . . 50%)
